Test results taken from patent publication US20240083949A1, “CELL PENETRATING PEPTIDE COMPOSITIONS AND METHODS THEREOF” (The Regents of the University of California, priority 2022, published 2024).
“Also recorded” adds a separate entry of the source. Starred links: 1 amine or outer side, 2 acyl side, 3 side chain; linkers in the order of their positions; H or OH if unused. Positions of bridges follow the written chain, without caps; N, C: chain ends. Non-standard residues stand in square brackets, D forms with d. Residues, ends and D or L forms follow the SMILES beside them. Triazole bridges read from a SMILES are 1,4-linked. ξ: configuration not given here. *: point of attachment. RhodamineB = CCN(CC)c1ccc2c(-c3ccccc3C(=O)*)c3ccc(=[N+](CC)CC)cc-3oc2c1; X1 = Nc1ccn([C@@H]2O[C@H](COC(=O)CCC(=O)*)[C@@H](O)C2(F)F)c(=O)n1; Lys(N3) = [N-]=[N+]=NCCCC[C@H](N)C(=O)O; ξLys(N3) = [N-]=[N+]=NCCCCC(N)C(=O)O; NMeGABA = CN(CCCC(=O)[*:2])[*:1]; dPra = C#CC[C@@H](N)C(=O)O; Pra = C#CC[C@H](N)C(=O)O

Legend:
U87 = assay: Confocal microscopy for internalization of EPP6-GEM; format: cell-based, human; settings: 500 nM, U87 cells
Method: After purification of this conjugate, EPP6-GEM was dissolved in DMSO and diluted to 500 nM in full media (DMEM) and administered to the immortalized glioblastoma cell line U87. These cells were monitored using Confocal Microscopy for internalization of the conjugate. FIGS. 11A-11C show three images of U87 cells with different combinations of dyes internalized. […] EPP6-GEM has been outfitted with a Rhodamine B dye. […] Cell viability experiments were carried out to determine if the conjugate can kill cells at a similar rate to the free drug or at an improved rate.

FIBCD1-KO U87 cell line = settings: 500 nM, FIBCD1-KO U87 cells, crystal violet
Description: (§1) Crystal violet staining is a cell viability test used to determine if a drug or molecule is killing cells based on the difference in cell number from the untreated control. U87 cells are an adherent cell line if they are alive and healthy, they attach securely to the bottom of the petri dish. Herein we passaged U87 cells into a 96-well plate and made quadruplets for each concentration of the drug we planned to use. After staining the cells that remained after treatment with both the drug and the EPP6-GEM conjugate, the cells were then photographed with a cell phone and compared to the control wells (FIGS. 12A-13C).

U87 cells [1] = settings: 500 nM, crystal violet
Description: as §1

U87 cells [2] = assay: Confocal imaging of Dye-EPP uptake in U87 cells; format: cell-based, human; settings: RB-tagged EPPs, U87 cells, confocal imaging, ranking among EPP1-7
Method: (§2) Confocal Imaging experiments. To image the cells, a Zeiss 880 inverted confocal laser scanning microscope (Carl Zeiss, Germany) was used. Image acquisition and analyses were carried out using the manufacturer's software (ZEN, Carl Zeiss). Quantification of fluorescence intensity in single cells was performed using Fiji software.
Dye-EPP incubation. For general incubation, 300 k U87 cells were seeded in full medium containing 10% FBS and 1% PS in a 35×10 mm petri dish. The cells were incubated overnight in full medium. Stock solution of Dye-EPPs were made in DMSO to reach a concentration of 500 μM. Fresh cell culture medium was used to dilute the stock solution to 500 nM and replace the old medium on day 2. Cells were incubated with RB-EPPs for different time periods, followed by a one-time wash with phenol-free fresh culture medium before measurements.
Concentration gradient experiment. U87 Cells were incubated with RB-EPP 6 at different concentrations (20 nM, 200 nM, 2 μM, 20 μM, 50 μM and 100 μM). After wash with fresh medium once cells were examined by confocal imaging.

[3] = Octanol-water partition assay; format: physicochemical
Method: Octanol-water partition assay. For each RB-EPP, pre-mix 250 μl of octanol with 250 μl of water in a 1.5 ml centrifuge tube. 2 μl of RB-EPP was added to the solution at the concentration of 500 μM. After vortex the mixture, centrifuge at the highest speed for 10 min to separate the octanol and water phases. Samples were collected from both phases and quantified by the Analytical HPLC separately.

U87 cells [4] = assay: Temperature control comparison experiment (RB-EPP6 uptake at 37° C. and 4° C.); format: cell-based, human; settings: 500 nM, 1 h
Method: as §2
Temperature control comparison experiment. U87 cells were kept in the cold room for half an hour before incubated with RB-EPP 6. After that, cells were incubated with RB-EPP 6 at 500 nM at 4° C. Cells in the control group were incubated at 37° C. After 1 h, cells were wash with fresh medium once respectively before confocal imaging.

Lipid binding assay = settings: liposomes, RB-EPP6 1 nM to 10 μM
Method: Lipid binding assay. 95% egg PC, 5% nitrobenzoxadiazole (NBD) were added to 1% cholesterol, PE, PG, ganglioside, SM and PA to make liposomes individually. RB-EPP 6 was diluted with HEPES buffer to different concentrations, ranging from 1 nM to 10 μM. For each lipid type, 400 μl liposomes of 50 μg/ml were added to 400 μl of each RB-EPP 6 concentration. The mixture was incubated at room temperature for 15 min. 80 μl of each condition was collected to measure the fluorescence intensity of NBD suing the Synergy H1 microplate reader.

U87 cells [5] = assay: Colocalization of RB-EPP6 with mEmerald-caveolin and mEmerald-clathrin; format: cell-based, human; settings: transfected U87 cells, confocal
Method: as §2
(§3) Plasmid transfection assays. 300 k U87 cells were seeded in the 35×10 mm dish for overnight culture. Plasmids (caveolin, 75 ng; clathrin, 100 ng; rab5, 100 ng; rab7a, 10 ng; caveolin-1 CRISPR/Cas9 KO, 3 μg; FIBCD1 CRISPR/Cas9 KO, 3 ug; Control CRISPR, 3 ug) were diluted with Plasmid Transfection Medium (sc-108062) to 50 μl. UltraCruz Transfection Reagent (Santa Cruz Biotechnology) was also diluted with Plasmid Transfection Medium to 50 μl. Plasmids and transfection reagent were mixed well and kept at room temperature for 20 min. Replace the cells with PS free medium and add the mixture to the cells, culture for another 24 h.

U87 cells [6] = assay: RB-EPP6 uptake after caveolin CRISPR knockout; format: cell-based, human; settings: data not shown
Method: as §3

U87 cells [7] = assay: Intracellular trafficking of EPP6 conjugates (endosome markers, organelle trackers, time series, EB staining); format: cell-based, human
Method: Time series experiment. U87 Cells were incubated with RB-EPP 6 at 500 nM for 1 h. After wash with fresh medium once, the cells were kept in the 5% CO2 incubator at 37° C. for different time durations (1 h, 2 h, 6 h and 24 h) before confocal imaging.
Organelle tracker colocalization experiment. Stock solution of trackers for mitochondria, lysosome and ER were diluted with cell culture medium into 100 nM, 500 nM and 4 μM respectively. RB-EPP 6 was added into each working solution at 500 nM. U87 cells were incubated with the both trackers and RB-EPP 6 for 1 h and then washed once before confocal imaging.
as §3
Ethidium bromide (EB) staining. U87 cells were incubated with 2 μg/ml EB with or without the conjugation of EPP6 for an hour, 3 hours and 6 hours respectively. After 1 h and the cells were washed with fresh phenol-free media once before confocal imaging.
Statistical analysis. Pearson's correlation coefficient was used to calculate correlation between RB and tracker channels in the organelle tracker experiment. Graph generation and statistical analyses were performed using Fiji software.

[8] = MDCK, MDCK monolayer, trans-well, three hours of incubation, 10 μM
Method: (§4) MDCK transwell assay. 200 k MDCK cells were seeded in 200 μl in complete growth media to the apical side of a transwell insert (12-well 8 μm pore size Transwell-65 mm). In addition, 1 ml complete growth media is added to the basolateral chamber. […] Incubate the plate for 2-3 days at 37° C. with 5% CO2. The electrical resistance of MDCK transwell inserts was measured using EVOM Epithelial Voltohmmeter to measure the integrity of tight junctions the following two days. On day 3, serum free media was used to wash both the apical (200 μl) and basolateral (1 ml) wells three times. Cells were kept in a 37° C./5% CO2 cell incubator equilibrating for 15 min.
(§5) The assay was carried out in both apical to basolateral and basolateral to apical direction. […] For the assay with apical to basolateral direction, the apical chamber was replaced with 200 μl testing compounds. For the assay with basolateral to apical direction, the basolateral chamber was replaced with 1 ml testing compounds. Both plates were incubated in the cell culture incubator for 3 h. After that, 80 μl of the samples were collected from each chamber for RB fluorescence intensity reading using a Synergy H1 microplate reader.

MDCK cells = settings: MDCK monolayer, trans-well, three hours
Method: as §4, §5

CCN(CC)c1ccc2c(-c3ccccc3C(=O)N(C)CCCC(=O)N[C@@H](CCCCNC(=O)CCC(=O)OC[C@H]3O[C@@H](n4ccc(N)nc4=O)C(F)(F)[C@@H]3O)C(=O)N[C@@H]3Cc4cn(nn4)CCCCC(C(N)=O)NC(=O)[C@H](CO)NC(=O)[C@H](Cc4ccc(O)cc4)NC(=O)[C@H](Cc4ccc(O)cc4)NC(=O)[C@H](CO)NC(=O)[C@H](Cc4ccc(O)cc4)NC3=O)c3ccc(=[N+](CC)CC)cc-3oc2c1 (some centres unmarked) [EPP6-GEM] (RhodamineB-[NMeGABA]K(X1)[dPra]YSYYS[ξLys(N3)]-NH2; triazole 3-9)
internalization (Rhodamine B signal) (U87): some internalization is occurring | cell killing compared with free drug (FIBCD1-KO U87 cell line): cannot perform significantly better than the free drug | cell killing compared with free drug (U87 cells [1]): can kill the cells more effectively than the free drug

CCN(CC)c1ccc2c(-c3ccccc3C(=O)N(C)CCCC(=O)N[C@H]3Cc4cn(nn4)CCCC[C@@H](C(N)=O)NC(=O)[C@H](CO)NC(=O)[C@H](Cc4ccc(O)cc4)NC(=O)[C@H](Cc4ccc(O)cc4)NC(=O)[C@H](CO)NC(=O)[C@H](Cc4ccc(O)cc4)NC3=O)c3ccc(=[N+](CC)CC)cc-3oc2c1 [RB-EPP6, RB-cy(YSYYS)] (RhodamineB-[NMeGABA][Pra]YSYYS[Lys(N3)]-NH2; triazole 2-8; N-terminus and C-terminus assumed)
ability to enter the cells (intracellular fluorescence) (U87 cells [2]): best performing | hydrophobicity (octanol partitioning) [3]: hydrophilic | uptake at low temperature (U87 cells [4]): no RB-EPP6 uptake; also recorded: no fluorescence signal in the cells | interaction with lipid components (Lipid binding assay): no appreciable interaction; also recorded: no significant interaction | colocalization with mEmerald-caveolin (U87 cells [5]): significantly overlapped | colocalization with mEmerald-clathrin (U87 cells [5]): no overlap | uptake after CRISPR caveolin (U87 cells [6]): decreased | localization in early endosomes (Rab5) (U87 cells [7]; EGFP-Rab5, after 15-min): appeared in distinct Rab5-coated vesicles | trafficking into mitochondria or endoplasmic reticulum (U87 cells [7]; MitoTracker, ERTracker): did not traffic into the mitochondria or the endoplasmic reticulum | localization in lysosomes (LysoTracker) (U87 cells [7]; after 3 hours): some RB-EPP6 signals appeared in lysosomes | retention in Rab7a+ vesicles (U87 cells [7]; after 4 hours): a significant amount of RB-EPP6 remained inside Rab7a+vesicles | remaining intracellular signal (U87 cells [7]; after 24 hours): some signals remained | endosomal escape to cytosol (U87 cells [7]; imaging): could escape from the endosomes and enter the cytosol | time to traffic into late endosomes (U87 cells [7]; mEmerald-Rab7a): ≤ 30 min | internalization (Rhodamine B signal) (U87): much higher signals | Papp [8]: 5.25 ×10⁻⁶ cm/s | Papp relative to RB-TAT (MDCK cells): more than twice that of RB-TAT
